Measurements from ChEMBL document CHEMBL1201862, “PubChem BioAssay data set” (2004).
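Grown in 96-well plates, cells were treated for 48 hours with each compound at five concentrations. Insufficient inhibition: endpoint recorded as highest concentration tested. GI50 marks 50% less growth.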 Active and inactive are the calls of the source. No stated cut-off is given here; in the data, active = GI50 up to about 1.1 µM and inactive = higher.

Key:
Test in all cases: inhibition of tumour cell growth, NCI panel, 48 h
[1] = test system: 786-0
[2] = test system: A549
[3] = test system: ACHN
[4] = test system: CAKI-1
[5] = test system: HCC 2998
[6] = test system: HOP-62
[7] = test system: KM12
[8] = test system: MOLT-4
[9] = test system: NCI-H460
[10] = test system: OVCAR-5
[11] = test system: OVCAR-8
[12] = test system: PC-3
[13] = test system: SF-268
[14] = test system: SN12C
[15] = test system: T47D
[16] = test system: U-251
[17] = test system: UO-31
[18] = test system: NCI-H226
[19] = test system: SK-MEL-5
[20] = test system: NCI-H522

Row | SMILES | GI50 [1] | GI50 [2] | GI50 [3] | GI50 [4] | GI50 [5] | GI50 [6] | GI50 [7] | GI50 [8] | GI50 [9] | GI50 [10] | GI50 [11] | GI50 [12] | GI50 [13] | GI50 [14] | GI50 [15] | GI50 [16] | GI50 [17] | GI50 [18] | GI50 [19] | GI50 [20]
1 | CC1=NN(C(=O)CC(=O)NC(=O)/C=C\c2ccccc2)C(=O)C1/N=N/c1ccc([N+](=O)[O-])cc1 (stereo unspecified) | 83.8 µM (inactive) | 84.5 µM (inactive) | 37.4 µM (inactive) | 30.6 µM (inactive) | > 100 µM (inactive) | > 100 µM (inactive) | 30 µM (inactive) | 60.1 µM (inactive) | > 100 µM (inactive) | > 100 µM (inactive) | > 100 µM (inactive) | > 100 µM (inactive) | > 100 µM (inactive) | > 100 µM (inactive) | > 100 µM (inactive) | 35.3 µM (inactive) | 48 µM (inactive) |  |  | 
2 | Cc1n[nH]c(=O)n1/N=C/c1cccs1 | > 100 µM (inactive) | > 100 µM (inactive) | > 100 µM (inactive) | > 100 µM (inactive) | > 100 µM (inactive) | > 100 µM (inactive) | > 100 µM (inactive) |  | > 100 µM (inactive) | > 100 µM (inactive) | > 100 µM (inactive) | > 100 µM (inactive) | > 100 µM (inactive) | > 100 µM (inactive) | > 100 µM (inactive) | > 100 µM (inactive) | > 100 µM (inactive) | > 100 µM (inactive) |  | 
3 | CCOC(=O)C1(C)CCCc2sc(N)c(C#N)c21 (stereo unspecified) | > 100 µM (inactive) | > 100 µM (inactive) | > 100 µM (inactive) |  | > 100 µM (inactive) | > 100 µM (inactive) | > 100 µM (inactive) | > 100 µM (inactive) | > 100 µM (inactive) | > 100 µM (inactive) | > 100 µM (inactive) | > 100 µM (inactive) |  | > 100 µM (inactive) |  | > 100 µM (inactive) | > 100 µM (inactive) | > 100 µM (inactive) | > 100 µM (inactive) | 
4 | O=C1C=CC2(C=C1)O[C@H](CCc1ccccc1)[C@@H](CCc1ccccc1)O2 | > 100 µM (inactive) | 43.7 µM (inactive) | > 100 µM (inactive) | > 100 µM (inactive) |  | 61.2 µM (inactive) | > 100 µM (inactive) | 81.8 µM (inactive) | > 100 µM (inactive) | > 100 µM (inactive) | > 100 µM (inactive) | > 100 µM (inactive) | 61.8 µM (inactive) | > 100 µM (inactive) | 76.4 µM (inactive) | 20.2 µM (inactive) | > 100 µM (inactive) | > 100 µM (inactive) | > 100 µM (inactive) | 
5 | CCOC(=O)C1=C(C)OC(=O)[C@@]2(OC)C=C(Cl)[C@@]12C | > 100 µM (inactive) | > 100 µM (inactive) | > 100 µM (inactive) | > 100 µM (inactive) | > 100 µM (inactive) | > 100 µM (inactive) | > 100 µM (inactive) | > 100 µM (inactive) | > 100 µM (inactive) | > 100 µM (inactive) | > 100 µM (inactive) | > 100 µM (inactive) | > 100 µM (inactive) | > 100 µM (inactive) |  | > 100 µM (inactive) | > 100 µM (inactive) | > 100 µM (inactive) | > 100 µM (inactive) | > 100 µM (inactive)
6 | COc1ccc(C(=O)C(c2ccc(OC)cc2)C2OC(=O)C(Cl)=C2Cl)cc1 (stereo unspecified) | > 100 µM (inactive) | > 100 µM (inactive) | > 100 µM (inactive) | > 100 µM (inactive) | > 100 µM (inactive) | > 100 µM (inactive) | > 100 µM (inactive) | > 100 µM (inactive) | > 100 µM (inactive) | > 100 µM (inactive) | 84.1 µM (inactive) |  | > 100 µM (inactive) | > 100 µM (inactive) |  | > 100 µM (inactive) | > 100 µM (inactive) | > 100 µM (inactive) | > 100 µM (inactive) | > 100 µM (inactive)
7 | COC(=O)c1cccn1C(=O)n1cccc1 | > 100 µM (inactive) | > 100 µM (inactive) | > 100 µM (inactive) | > 100 µM (inactive) | > 100 µM (inactive) | > 100 µM (inactive) | > 100 µM (inactive) | > 100 µM (inactive) | > 100 µM (inactive) | > 100 µM (inactive) | > 100 µM (inactive) |  | > 100 µM (inactive) | > 100 µM (inactive) |  | > 100 µM (inactive) | > 100 µM (inactive) | > 100 µM (inactive) | > 100 µM (inactive) | > 100 µM (inactive)
8 | [O-][n+]1c2cccc(O)c2[n+]([O-])c2cccc(O)c21 | 30.2 µM (inactive) | 84.7 µM (inactive) | 14.2 µM (inactive) | 25.1 µM (inactive) |  | 27.9 µM (inactive) | 37.5 µM (inactive) | 3.99 µM (inactive) | 30.1 µM (inactive) | > 100 µM (inactive) | 25.9 µM (inactive) | 53.1 µM (inactive) | 31.8 µM (inactive) |  | 40.2 µM (inactive) | 43.3 µM (inactive) | > 100 µM (inactive) |  | 53.5 µM (inactive) | 20.4 µM (inactive)
9 | CN(C)c1ccc(-c2[nH]c(=O)c3ccccc3[n+]2C)cc1 | > 100 µM (inactive) | > 100 µM (inactive) | 62.5 µM (inactive) |  | > 100 µM (inactive) | > 100 µM (inactive) | 55.5 µM (inactive) | 51.9 µM (inactive) | > 100 µM (inactive) | 44.2 µM (inactive) | > 100 µM (inactive) |  | > 100 µM (inactive) | > 100 µM (inactive) | 41.3 µM (inactive) | > 100 µM (inactive) | 39.4 µM (inactive) | 40.6 µM (inactive) | 36.6 µM (inactive) | 
10 | C=C[C@@H](C)[C@H](NS(=O)(=O)c1ccc(C)cc1)C(=O)OCC | 40.8 µM (inactive) | 32 µM (inactive) | 35.6 µM (inactive) |  |  | > 100 µM (inactive) | 28.1 µM (inactive) | 50.6 µM (inactive) | 42.2 µM (inactive) | 26.2 µM (inactive) | 40.2 µM (inactive) | 32.4 µM (inactive) | 32 µM (inactive) | > 100 µM (inactive) |  | 33.5 µM (inactive) | 31.3 µM (inactive) | > 100 µM (inactive) |  | 20.6 µM (inactive)
11 | Cc1ccc(/C=C/C(=O)Oc2ccc(/C=C3\CCC/C(=C\c4ccc(OC(=O)/C=C/c5ccc(C)cc5)cc4)C3=O)cc2)cc1 | 16.7 µM (inactive) | > 100 µM (inactive) | 37.3 µM (inactive) | 79.8 µM (inactive) | > 100 µM (inactive) | 29.1 µM (inactive) | > 100 µM (inactive) | > 100 µM (inactive) | > 100 µM (inactive) | > 100 µM (inactive) | 67.1 µM (inactive) | > 100 µM (inactive) | > 100 µM (inactive) | > 100 µM (inactive) | 92.3 µM (inactive) | 34 µM (inactive) | > 100 µM (inactive) |  | > 100 µM (inactive) | > 100 µM (inactive)
12 | CCOC(=O)CCCSCCCC(=O)CCCSCCCC(=O)OCC | > 100 µM (inactive) | > 100 µM (inactive) |  |  | > 100 µM (inactive) | > 100 µM (inactive) | > 100 µM (inactive) | > 100 µM (inactive) | > 100 µM (inactive) | > 100 µM (inactive) | > 100 µM (inactive) | > 100 µM (inactive) | > 100 µM (inactive) | > 100 µM (inactive) | > 100 µM (inactive) | > 100 µM (inactive) | > 100 µM (inactive) |  | > 100 µM (inactive) | > 100 µM (inactive)
13 | CCOC(=O)N1CCC2C(=C(C)C(C)C3=C2C(=O)c2ccccc2C3=O)C1 (stereo unspecified) | 4.61 µM (inactive) | 4.3 µM (inactive) |  | 4.73 µM (inactive) | 5.19 µM (inactive) | 4.1 µM (inactive) | 5.81 µM (inactive) | 4.6 µM (inactive) |  |  | 6.18 µM (inactive) | 4.4 µM (inactive) | > 10 µM (inactive) | 3.86 µM (inactive) | 9.55 µM (inactive) |  |  |  | 1.77 µM (inactive) | 
14 | CO[C@H]1C[C@H](n2cc(C)c(=O)[nH]c2=O)O[C@@H]1CO | > 100 µM (inactive) | > 100 µM (inactive) | > 100 µM (inactive) | > 100 µM (inactive) | > 100 µM (inactive) | > 100 µM (inactive) | > 100 µM (inactive) | > 100 µM (inactive) | > 100 µM (inactive) | > 100 µM (inactive) | > 100 µM (inactive) | > 100 µM (inactive) | > 100 µM (inactive) | > 100 µM (inactive) |  | > 100 µM (inactive) | > 100 µM (inactive) | > 100 µM (inactive) | > 100 µM (inactive) | 
15 | O=C(/C=C/c1ccccc1)Oc1ccc(C(=O)/C=C/c2ccc(Cl)cc2)cc1 | 31.9 µM (inactive) | > 100 µM (inactive) | > 100 µM (inactive) | > 100 µM (inactive) | 41.3 µM (inactive) | > 100 µM (inactive) | 33.8 µM (inactive) | > 100 µM (inactive) | 15.8 µM (inactive) | > 100 µM (inactive) | 42.3 µM (inactive) | 59.7 µM (inactive) | 82.2 µM (inactive) | > 100 µM (inactive) | 66.7 µM (inactive) | 20.7 µM (inactive) | 63.8 µM (inactive) |  | 83.4 µM (inactive) | 
16 | CC(C)C[C@H](NC(=O)[C@H](Cc1ccccc1)NC(=O)c1cnccn1)B(O)O [BORTEZOMIB] | < 0.01 µM (active) | < 0.01 µM (active) | < 0.01 µM (active) | < 0.01 µM (active) | < 0.01 µM (active) | < 0.01 µM (active) | < 0.01 µM (active) | < 0.01 µM (active) | < 0.01 µM (active) | < 0.01 µM (active) | < 0.01 µM (active) | < 0.01 µM (active) | < 0.01 µM (active) | < 0.01 µM (active) | < 0.01 µM (active) | < 0.01 µM (active) | < 0.01 µM (active) |  |  | < 0.01 µM (active)
